Experimental data from ChEMBL document CHEMBL4321867, “Optimization of LpxC Inhibitor Lead Compounds Focusing on Efficacy and Formulation for High Dose Intravenous Administration” (J Med Chem, 2020).
In brackets after ≈: the same amount, converted by molar mass.

Columns and labels:
[1] = system: Pseudomonas aeruginosa; test: microbe, parasite or virus in culture; details: ATCC 27853
[2] = physchem; details: buffer, pH 9
[3] = physchem; details: buffer, pH 7
[4] = in vitro; details: rat, hepatocytes
[5] = in vitro; details: rat, liver microsomes
[6] = physchem; details: n-octanol/phosphate buffer, pH 7.4
[7] = system: Klebsiella pneumoniae; test: microbe, parasite or virus in culture; details: T6474
[8] = physchem; details: buffer, pH 4
[9] = system: Escherichia coli; test: microbe, parasite or virus in culture; details: ATCC 25922
[10] = system: T1, UDP-3-O-acyl-N-acetylglucosamine deacetylase (Pseudomonas aeruginosa (strain ATCC 15692 / PAO1 / 1C / PRS 101 / LMG12228)), P47205 [C40S]; details: 25 uM
T1 sequence (whole entry): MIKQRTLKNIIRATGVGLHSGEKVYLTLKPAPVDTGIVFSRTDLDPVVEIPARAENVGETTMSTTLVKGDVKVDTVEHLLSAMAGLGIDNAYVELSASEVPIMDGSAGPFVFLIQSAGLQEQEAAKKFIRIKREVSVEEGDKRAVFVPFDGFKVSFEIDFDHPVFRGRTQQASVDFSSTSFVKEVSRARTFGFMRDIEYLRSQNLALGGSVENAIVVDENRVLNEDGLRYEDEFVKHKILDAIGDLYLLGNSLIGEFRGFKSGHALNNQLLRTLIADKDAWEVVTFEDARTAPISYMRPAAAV

[11] = in vivo; details: mouse, sc, 150 mg/kg
[12] = physchem
[13] = system: T2, UDP-3-O-acyl-N-acetylglucosamine deacetylase (Escherichia coli K-12), P0A725 [C125S]; details: 25 uM
T2 sequence (whole entry): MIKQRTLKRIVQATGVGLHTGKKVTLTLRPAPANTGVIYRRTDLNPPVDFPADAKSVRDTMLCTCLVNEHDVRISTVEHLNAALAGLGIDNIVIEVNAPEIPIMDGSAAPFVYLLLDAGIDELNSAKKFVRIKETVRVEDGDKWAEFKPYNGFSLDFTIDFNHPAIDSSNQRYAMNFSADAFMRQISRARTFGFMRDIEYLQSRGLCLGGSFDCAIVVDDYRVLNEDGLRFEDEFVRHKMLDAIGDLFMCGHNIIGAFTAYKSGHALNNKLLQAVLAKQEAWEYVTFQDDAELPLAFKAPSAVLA

Structure (SMILES)	MIC [1]	solubility at 24 h [2]	solubility at 24 h [3]	hepatocyte CLint at 1 µM [4]	microsomal CLint at 1 µM [5]	logD [6]	MIC [7]	solubility at 24 h [8]	MIC [9]	deltaTm [10]	AUC(0-t) at 24 h [11]	pKa [12]	deltaTm [13]
C[C@]1(CO)C[C@@H]1C#CC#Cc1cc2n(c1)C(=O)N(CC[C@](C)(C(=O)NO)S(C)(=O)=O)C2	0.25 µg/mL (≈ 0.559 µM)	506 µg/mL (≈ 1130 µM)	401 µg/mL (≈ 896 µM)	55 µL/min/1e6 cells	< 10 µL/min/mg	1.6	0.25 µg/mL (≈ 0.559 µM)	344 µg/mL (≈ 769 µM)	0.25 µg/mL (≈ 0.559 µM)				
C[C@@](CCN1Cc2cc(C#CC#C[C@@H]3C[C@H]3[C@H](O)CO)cn2C1=O)(C(=O)NO)S(C)(=O)=O	0.5 µg/mL (≈ 1.08 µM)	> 780 µg/mL	> 780 µg/mL	10 µL/min/1e6 cells	< 10 µL/min/mg	0.5	1 µg/mL (≈ 2.16 µM)	618 µg/mL (≈ 1330 µM)	0.25 µg/mL (≈ 0.539 µM)				
C[C@@](CCN1Cc2cc(C#CC#C[C@H]3C[C@]3(F)CO)cn2C1=O)(C(=O)NO)S(C)(=O)=O	0.5 µg/mL (≈ 1.11 µM)	> 760 µg/mL	613 µg/mL (≈ 1360 µM)	13 µL/min/1e6 cells	16 µL/min/mg	0.9	0.5 µg/mL (≈ 1.11 µM)	354 µg/mL (≈ 784 µM)	0.25 µg/mL (≈ 0.554 µM)				
CC(C)(O)CN1CC(C#CC#Cc2cc3n(c2)C(=O)N(CC[C@](C)(C(=O)NO)S(C)(=O)=O)C3)C1	0.5 µg/mL (≈ 1.02 µM)	> 830 µg/mL	> 830 µg/mL			0.7	1 µg/mL (≈ 2.04 µM)	> 830 µg/mL	0.5 µg/mL (≈ 1.02 µM)	12.1 K	47300 ng·h/mL	7.8	10.3 K
C[C@@](CCN1Cc2cc(C#CC#CC3CNC3)cn2C1=O)(C(=O)NO)S(C)(=O)=O	1 µg/mL (≈ 2.39 µM)	> 710 µg/mL	> 710 µg/mL			-1	4 µg/mL (≈ 9.56 µM)	> 710 µg/mL	8 µg/mL (≈ 19.1 µM)	9.3 K		9.4	8 K
C[C@@](CCN1Cc2cc(C#CC#CC3(CN)CC3)cn2C1=O)(C(=O)NO)S(C)(=O)=O	16 µg/mL (≈ 37 µM)	> 730 µg/mL	552 µg/mL (≈ 1280 µM)			-0.4	16 µg/mL (≈ 37 µM)	> 730 µg/mL	8 µg/mL (≈ 18.5 µM)	10.7 K		9.2	9.6 K
CN1CC(C#CC#Cc2cc3n(c2)C(=O)N(CC[C@](C)(C(N)=O)S(C)(=O)=O)C3)C1	> 32 µg/mL	92 µg/mL (≈ 221 µM)	706 µg/mL (≈ 1700 µM)			0.5	> 32 µg/mL	> 700 µg/mL	> 32 µg/mL	0.3 K		8.4	0 K
C[C@@](CCN1Cc2cc(C#CC#CC3(F)CNC3)cn2C1=O)(C(=O)NO)S(C)(=O)=O	2 µg/mL (≈ 4.58 µM)	279 µg/mL (≈ 639 µM)	175 µg/mL (≈ 401 µM)			0.3	2 µg/mL (≈ 4.58 µM)	> 740 µg/mL	1 µg/mL (≈ 2.29 µM)	10 K		8	7.1 K
CN(C)C1(C#CC#Cc2cc3n(c2)C(=O)N(CC[C@](C)(C(=O)NO)S(C)(=O)=O)C3)CC1	0.5 µg/mL (≈ 1.12 µM)	95 µg/mL (≈ 213 µM)	15 µg/mL (≈ 33.6 µM)			2.1	0.5 µg/mL (≈ 1.12 µM)	412 µg/mL (≈ 923 µM)	0.25 µg/mL (≈ 0.56 µM)	13.4 K		5.5	11.6 K
C[C@@](CCN1Cc2cc(C#CC#CC3(CO)CC3)cn2C1=O)(C(=O)NO)S(C)(=O)=O	0.5 µg/mL (≈ 1.15 µM)	553 µg/mL (≈ 1280 µM)	384 µg/mL (≈ 886 µM)	8.5 µL/min/1e6 cells	24 µL/min/mg	0.9	1 µg/mL (≈ 2.31 µM)	149 µg/mL (≈ 344 µM)	0.25 µg/mL (≈ 0.577 µM)		89500 ng·h/mL		
C[C@@](CCN1Cc2cc(C#CC#C[C@@H]3C[C@H]3CO)cn2C1=O)(C(=O)NO)S(C)(=O)=O	0.5 µg/mL (≈ 1.15 µM)	552 µg/mL (≈ 1270 µM)	602 µg/mL (≈ 1390 µM)	13.4 µL/min/1e6 cells	< 10 µL/min/mg		0.25 µg/mL (≈ 0.577 µM)	600 µg/mL (≈ 1380 µM)	0.12 µg/mL (≈ 0.277 µM)				
